Assay results: patent publication US20180312493A1, “Antibiotic Compounds, Pharmaceutical Formulations Thereof And Methods And Uses Therefor” (Simon Fraser University, priority 2015, published 2018)
≈ marks a conversion by molar mass, not a printed value.

Columns and labels:
MRSA Pyk = biological target: T1, MRSA Pyk (Staphylococcus aureus, UniProt Q6GG09); assay: MRSA pyruvate kinase (PK) activity, continuous LDH-coupled assay; format: biochemical, methicillin resistant S. aureus (MRSA252)
T1 construct: made in house; host or cells: E. coli BL-21 (DE3)
T1 sequence (Q6GG09 whole entry): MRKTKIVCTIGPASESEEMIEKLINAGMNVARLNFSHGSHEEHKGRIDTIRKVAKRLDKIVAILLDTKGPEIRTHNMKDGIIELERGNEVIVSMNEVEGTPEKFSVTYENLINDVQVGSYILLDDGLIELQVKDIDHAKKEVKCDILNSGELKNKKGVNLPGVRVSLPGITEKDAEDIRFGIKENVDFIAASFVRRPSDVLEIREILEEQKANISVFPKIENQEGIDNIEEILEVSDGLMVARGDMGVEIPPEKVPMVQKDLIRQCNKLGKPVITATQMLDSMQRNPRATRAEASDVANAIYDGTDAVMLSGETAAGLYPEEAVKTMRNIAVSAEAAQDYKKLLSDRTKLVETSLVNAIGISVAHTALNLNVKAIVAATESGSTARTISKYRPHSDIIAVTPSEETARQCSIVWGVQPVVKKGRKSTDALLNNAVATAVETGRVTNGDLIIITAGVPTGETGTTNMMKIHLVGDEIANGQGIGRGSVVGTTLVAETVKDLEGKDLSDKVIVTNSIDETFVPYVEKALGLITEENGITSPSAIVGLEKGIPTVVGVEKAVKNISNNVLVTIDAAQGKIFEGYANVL
Summary of the method: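 Activity monitored continuously as absorbance change at 340 nm from NADH oxidation via coupled lactate dehydrogenase, reactions started with 15 nM recombinant His-tagged PK (MRSA or human isoform) and run at 30° C for up to 5 min. Ki derived by varying inhibitor (0-400 nM) and PEP (2-20 mM) at 2 mM ADP; IC50 by four-parameter fitting.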

[1] = test system: A. baumannii (ATCC 19606); assay: In vitro susceptibility, broth microdilution (MIC); format: cell-based; details: Acinetobacter baumannii, ATCC19606; A. baumannii ATCC 19606 (values without asterisk); read-out: Antimicrobial activity (MIC) A. baumannii
Summary of the method: (§1)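 MIC determined by CLSI 2-fold broth microdilution in cation-adjusted Mueller–Hinton broth at ~2.5×10^5 CFU/ml, final compound 0.031–64 μg/ml, 18–24 h at 37 °C. MIC is the lowest concentration giving complete growth inhibition by background-corrected OD600 versus compound-free wells; duplicate or triplicate wells, replicated at least twice.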

P. aeruginosa (PA01) = assay: In vitro susceptibility, broth microdilution (MIC); format: cell-based; details: Pseudomonas aeruginosa, read-out: Antimicrobial activity (MIC) P. aeruginosa
Summary of the method: as §1

[2] = test system: S. typhimurium (ATCC BAA-185); assay: In vitro susceptibility, broth microdilution (MIC); format: cell-based; details: Salmonella enterica, read-out: Antimicrobial activity (MIC) S. typhimurium
Summary of the method: as §1

| Structure (SMILES) | IC50 (MRSA Pyk) | MIC [1] | MIC (P. aeruginosa (PA01)) | MIC [2] |
| --- | --- | --- | --- | --- |
| CN(C)CCOC(=O)c1c(/C=C/c2ccc(Cl)cc2)[nH]c2cc(Br)ccc12 [Compound 60, (E)-2-(Dimethylamino)ethyl 6-bromo-2-(4-chlorostyryl)-1H-indole-3-carboxylate] | < 100 nM | > 64 µg/mL | – | – |
| NCCNC(=O)c1c(-c2cc3cc(Cl)ccc3[nH]2)[nH]c2cc(Br)ccc12 [Compound 206, N-(2-Aminoethyl)-6-bromo-5′-chloro-1H,1′H-[2,2′-biindole]-3-carboxamide] | < 100 nM | 16 µg/mL (≈ 37.1 µM) | 32 µg/mL (≈ 74.1 µM) | 64 µg/mL (≈ 148 µM) |
| NCCOc1cc2[nH]c(-c3cc4ccc(Br)cc4[nH]3)cc2cc1Cl [Compound 201, 2-((6′-Bromo-5-chloro-1H,1′H-[2,2′-biindol]-6-yl)oxy)ethan-1-amine] | < 100 nM | 16 µg/mL (≈ 39.5 µM) | 16 µg/mL (≈ 39.5 µM) | 16 µg/mL (≈ 39.5 µM) |
| C[N+](C)(C)CCON=C(c1c(-c2cc3cc(Cl)ccc3[nH]2)[nH]c2cc(Br)ccc12)C(F)(F)F (racemic) [Compound 221, 2-(((1-(6-Bromo-5′-chloro-1H,1′H-[2,2′-biindol]-3-yl)-2,2,2-trifluoroethylidene)amino)oxy)-N,N,N-trimethylethan-1-aminium Iodide] | < 100 nM | 32 µg/mL | 32 µg/mL | 64 µg/mL |
